Activity calls are given as the source filed them. The rule behind the calls is not given here.
Columns and labels:
[1] = test system: Mus musculus; assay: In-vivo hypoglycemic activity in alloxan-pretreated diabetic BALB/c mouse assessed as blood glucose level after 8 hrs by glucometer analysis (reference value: 239.0 to 444.4 mg/dl); format: functional
[2] = test system: Mus musculus; assay: In-vivo hypoglycemic activity in alloxan-pretreated diabetic BALB/c mouse assessed as decrease in blood glucose level after 8 hrs by glucometer analysis; format: functional
[3] = test system: Mus musculus; assay: In-vivo hypoglycemic activity in alloxan-pretreated diabetic BALB/c mouse assessed as blood glucose level after 6 hrs by glucometer analysis (reference value: 239.0 to 444.4 mg/dl); format: functional
[4] = target: Aldo-keto reductase family 1 member A1 (Bos taurus, UniProt Q3ZCJ2); assay: Inhibition of ALR1 in calf kidney using sodium D-glucoronate as substrate treated with compound for 10 mins prior to substrate addition by UV spectrophotometer analysis
[5] = test system: Mus musculus; assay: In-vivo hypoglycemic activity in alloxan-pretreated diabetic BALB/c mouse assessed as blood glucose level after 4 hrs by glucometer analysis (reference value: 239.0 to 444.4 mg/dl); format: functional
[6] = Retardation factor of the compound using petroleum ether/ethylacetate (6:4) as solvent system by TLC; format: physicochemical
[7] = test system: Mus musculus; assay: In-vivo hypoglycemic activity in alloxan-pretreated diabetic BALB/c mouse assessed as blood glucose level after 2 hrs by glucometer analysis (reference value: 239.0 to 444.4 mg/dl); format: functional
[8] = target: Aldo-keto reductase family 1 member B1 (Bos taurus, UniProt P16116); assay: Inhibition of ALR2 in calf lenses using DL-glyceraldehyde as substrate treated with compound for 10 mins prior to substrate addition by UV spectrophotometer analysis; set-up: species or system Lens of camera-type eye
[9] = species: Bos taurus; assay: Selectivity index, ratio of IC50 for ALR1 in calf kidney to IC50 for ALR2 in calf lenses; format: tissue-based; details: Lens of camera-type eye
[10] = test system: Mus musculus; assay: In-vivo hypoglycemic activity in alloxan-pretreated diabetic BALB/c mouse assessed as blood glucose level at 10 mg/kg after 4 hrs by glucometer analysis (reference value: 385.2 +/- 8.94 mg/dl); format: functional
[11] = test system: Mus musculus; assay: In-vivo hypoglycemic activity in alloxan-pretreated diabetic BALB/c mouse assessed as blood glucose level at 10 mg/kg after 2 hrs by glucometer analysis (reference value: 385.2 +/- 8.94 mg/dl); format: functional
[12] = test system: Mus musculus; assay: In-vivo hypoglycemic activity in alloxan-pretreated diabetic BALB/c mouse assessed as blood glucose level at 10 mg/kg after 8 hrs by glucometer analysis (reference value: 385.2 +/- 8.94 mg/dl); format: functional
[13] = test system: Mus musculus; assay: In-vivo hypoglycemic activity in alloxan-pretreated diabetic BALB/c mouse assessed as blood glucose level at 10 mg/kg after 6 hrs by glucometer analysis (reference value: 385.2 +/- 8.94 mg/dl); format: functional
[14] = test system: Mus musculus; assay: In-vivo hypoglycemic activity in alloxan-pretreated diabetic BALB/c mouse assessed as blood glucose level at 10 mg/kg after 8 hrs by glucometer analysis; format: functional
[15] = test system: aldehyde reductase (ALR1), Bos taurus; assay: Inhibition of ALR1 in calf kidney using sodium D-glucoronate as substrate at 0.6 mM treated with compound for 10 mins prior to substrate addition by UV spectrophotometer analysis
[16] = target: Aldo-keto reductase family 1 member B1 (Bos taurus) (UniProt P16116); assay: Uncompetitive inhibition of ALR2 in calf lenses using DL-glyceraldehyde as substrate at 20 uM by Lineweaver-Burk plot analysis; details: Lens of camera-type eye
[17] = target: Aldo-keto reductase family 1 member B1 (Bos taurus) (UniProt P16116); assay: Inhibition of ALR2 in calf lenses using DL-glyceraldehyde as substrate at 0.6 mM treated with compound for 10 mins prior to substrate addition by UV spectrophotometer analysis; details: Lens of camera-type eye

Aldo-keto reductase family 1 member A1, sequence (Q3ZCJ2 2-325 limits assumed): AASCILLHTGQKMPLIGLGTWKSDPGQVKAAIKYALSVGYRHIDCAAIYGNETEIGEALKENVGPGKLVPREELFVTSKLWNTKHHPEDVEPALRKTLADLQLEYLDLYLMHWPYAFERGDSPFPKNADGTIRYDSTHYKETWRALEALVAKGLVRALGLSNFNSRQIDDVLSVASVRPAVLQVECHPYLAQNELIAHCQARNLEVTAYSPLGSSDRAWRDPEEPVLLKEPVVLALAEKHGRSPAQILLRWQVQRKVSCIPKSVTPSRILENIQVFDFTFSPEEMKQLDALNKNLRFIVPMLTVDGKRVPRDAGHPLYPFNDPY

| SMILES | Activity [1] | inhibition (INH) [2] | Activity [3] | IC50 [4] | Activity [5] | Rf [6] | Activity [7] | IC50 [8] | Ratio IC50 [9] | Activity [10] | Activity [11] | Activity [12] | Activity [13] | inhibition in vivo at 10 mg/kg [14] | inhibition [15] | inhibition [16] | inhibition [17] |
| --- | --- | --- | --- | --- | --- | --- | --- | --- | --- | --- | --- | --- | --- | --- | --- | --- | --- |
| O=C1NC(=O)C2(c3ccccc3-c3ccccc32)N1S(=O)(=O)c1ccc([N+](=O)[O-])cc1 | 138.2 mg/dL | 62.86% | 176.8 mg/dL | 12.3 µM | 189.4 mg/dL | 0.31 | 226.6 mg/dL | 7.88 µM |  |  |  |  |  |  |  |  |  |
| O=C1NC2(C(=O)N1S(=O)(=O)c1ccc([N+](=O)[O-])cc1)c1ccccc1-c1ccccc12 | 121.8 mg/dL | 55.25% | 175.2 mg/dL | 3.51 µM | 190.4 mg/dL | 0.35 | 226.6 mg/dL | 1.8 µM | 1.95 |  |  |  |  |  |  |  |  |
| COc1ccc(S(=O)(=O)N2C(=O)NC3(C2=O)c2ccccc2-c2ccccc23)cc1 | 418.8 mg/dL |  | 402.8 mg/dL | 26.1 µM | 376 mg/dL | 0.42 | 380.2 mg/dL | 1.02 µM | 25.6 |  |  |  |  |  |  |  |  |
| COc1ccc(S(=O)(=O)N2C(=O)NC(=O)C23c2ccccc2-c2ccccc23)cc1 | 129 mg/dL | 66.38% | 143.6 mg/dL | 13.9 µM | 205.6 mg/dL | 0.43 | 275.6 mg/dL | 5.8 µM | 2.39 |  |  |  |  |  |  |  |  |
| COc1ccc(Cl)cc1C(=O)NCCc1ccc(S(=O)(=O)NC(=O)NC2CCCCC2)cc1 [GLYBURIDE] |  |  |  |  |  |  |  |  |  | 229.3 mg/dL | 289.1 mg/dL | 150.5 mg/dL | 170.7 mg/dL | 60.9% |  |  |  |
| O=C1NC(=O)C2(c3ccccc3-c3ccccc32)N1S(=O)(=O)c1ccc(Br)cc1 | 72.8 mg/dL | 70.55% | 115.8 mg/dL | 11.5 µM | 168 mg/dL | 0.33 | 217 mg/dL | 3.86 µM | 2.97 |  |  |  |  |  |  |  |  |
| Cc1ccc(S(=O)(=O)N2C(=O)NC3(C2=O)c2ccccc2-c2ccccc23)cc1 | 123.6 mg/dL | 48.28% | 146.6 mg/dL | 5.15 µM | 180 mg/dL | 0.27 | 229.3 mg/dL | 2.84 µM | 1.81 |  |  |  |  |  |  |  |  |
| O=C1NC2(C(=O)N1S(=O)(=O)c1ccc(Br)cc1)c1ccccc1-c1ccccc12 | 63.5 mg/dL | 73.72% | 339.5 mg/dL |  | 297.2 mg/dL | 0.31 | 266.5 mg/dL | 5.37 µM | 9.68 |  |  |  |  |  | 52% |  |  |
| Cc1ccc(S(=O)(=O)N2C(=O)NC(=O)C23c2ccccc2-c2ccccc23)cc1 | 116.2 mg/dL | 61.67% | 152.2 mg/dL | 8.8 µM | 239.4 mg/dL | 0.25 | 286.2 mg/dL | 2.29 µM | 3.84 |  |  |  |  |  |  |  |  |
| O=C1NC2(C(=O)N1S(=O)(=O)c1ccc(Cl)cc1)c1ccccc1-c1ccccc12 | 68 mg/dL | 72.24% | 78.8 mg/dL |  | 160.4 mg/dL | 0.31 | 232 mg/dL | 0.89 µM | 53.8 |  |  |  |  |  | 47.9% | Active |  |
| O=C1NC(=O)C2(c3ccccc3-c3ccccc32)N1S(=O)(=O)c1ccc2ccccc2c1 | 135 mg/dL | 64.13% | 138.5 mg/dL | 12.5 µM | 197.3 mg/dL | 0.41 | 271.2 mg/dL | 27.3 µM | 0.45 |  |  |  |  |  |  |  |  |
| O=C1NC2(C(=O)N1S(=O)(=O)c1ccc3ccccc3c1)c1ccccc1-c1ccccc12 | 108.6 mg/dL | 66.44% | 123 mg/dL |  | 206 mg/dL | 0.44 | 277 mg/dL |  |  |  |  |  |  |  | 47.9% |  | 52% |
| O=C1c2ccccc2C(=O)c2cc(S(=O)(=O)N3C(=O)NC(=O)C34c3ccccc3-c3ccccc34)ccc21 | 544.6 mg/dL |  | 522.2 mg/dL | 20.3 µM | 500 mg/dL | 0.44 | 467 mg/dL | 10.3 µM | 1.97 |  |  |  |  |  |  |  |  |
| O=C1NC(=O)C2(c3ccccc3-c3ccccc32)N1S(=O)(=O)c1ccc(Cl)cc1 | 355 mg/dL |  | 323.4 mg/dL | 12.1 µM | 289 mg/dL | 0.2 | 259.8 mg/dL | 1.72 µM | 9.68 |  |  |  |  |  |  |  |  |
| O=C1c2ccccc2C(=O)c2cc(S(=O)(=O)N3C(=O)NC4(C3=O)c3ccccc3-c3ccccc34)ccc21 | 442.6 mg/dL |  | 400.4 mg/dL |  | 336.4 mg/dL | 0.47 | 305.8 mg/dL | 11.3 µM | 2.41 |  |  |  |  |  | 44.9% |  |  |

From ChEMBL document CHEMBL3425483, “Synthesis, characterization, hypoglycemic and aldose reductase inhibition activity of arylsulfonylspiro[fluorene-9,5'-imidazolidine]-2',4'-diones” (Eur J Med Chem, 2015)
